Laboratory results from patent US20140058103A1, “Inhibitors of PI3K-Delta and Methods of Their Use and Manufacture” (Exelixis, Inc., priority 2010, published 2014).

Biological target: PI3K delta (Homo sapiens, UniProt O00329)
Assay: Luciferase-coupled chemiluminescence kinase assay (ATP consumption, KinaseGlo)
Type: biochemical
Method in brief: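 Compound, kinase and ATP (≤ KM) reacted 2 h at ambient temperature, then remaining ATP quantified with luciferase-luciferin (KinaseGlo) luminescence as percent consumed.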

Chain of PI3K delta (O00329 whole entry): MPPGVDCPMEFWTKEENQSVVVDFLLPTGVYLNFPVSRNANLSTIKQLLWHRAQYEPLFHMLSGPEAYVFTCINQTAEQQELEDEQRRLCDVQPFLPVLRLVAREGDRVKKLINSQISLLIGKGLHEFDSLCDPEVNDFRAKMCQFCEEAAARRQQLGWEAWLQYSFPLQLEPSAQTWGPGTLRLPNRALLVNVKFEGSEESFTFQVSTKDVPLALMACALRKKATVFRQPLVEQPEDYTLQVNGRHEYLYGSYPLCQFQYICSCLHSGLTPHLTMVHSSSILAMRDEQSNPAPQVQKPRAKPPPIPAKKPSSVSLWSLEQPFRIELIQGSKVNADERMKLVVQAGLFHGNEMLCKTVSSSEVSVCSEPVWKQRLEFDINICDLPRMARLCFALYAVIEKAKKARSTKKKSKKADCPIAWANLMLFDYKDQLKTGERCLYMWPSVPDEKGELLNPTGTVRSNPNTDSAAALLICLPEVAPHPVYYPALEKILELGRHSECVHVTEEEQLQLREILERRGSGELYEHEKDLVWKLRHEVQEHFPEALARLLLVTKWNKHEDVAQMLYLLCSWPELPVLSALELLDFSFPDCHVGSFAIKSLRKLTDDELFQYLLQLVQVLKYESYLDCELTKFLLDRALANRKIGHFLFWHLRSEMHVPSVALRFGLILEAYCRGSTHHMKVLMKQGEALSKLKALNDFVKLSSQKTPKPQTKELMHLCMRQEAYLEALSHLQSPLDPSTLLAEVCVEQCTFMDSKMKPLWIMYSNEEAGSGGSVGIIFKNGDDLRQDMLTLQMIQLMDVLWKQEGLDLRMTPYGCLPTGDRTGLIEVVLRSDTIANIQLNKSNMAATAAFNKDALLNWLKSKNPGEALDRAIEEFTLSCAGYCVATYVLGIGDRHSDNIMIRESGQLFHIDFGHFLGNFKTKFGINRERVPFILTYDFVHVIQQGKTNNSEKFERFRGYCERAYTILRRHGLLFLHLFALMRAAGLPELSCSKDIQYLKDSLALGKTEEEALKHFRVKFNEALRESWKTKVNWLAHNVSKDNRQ
Chain of PI3K delta (P27986 whole entry partner): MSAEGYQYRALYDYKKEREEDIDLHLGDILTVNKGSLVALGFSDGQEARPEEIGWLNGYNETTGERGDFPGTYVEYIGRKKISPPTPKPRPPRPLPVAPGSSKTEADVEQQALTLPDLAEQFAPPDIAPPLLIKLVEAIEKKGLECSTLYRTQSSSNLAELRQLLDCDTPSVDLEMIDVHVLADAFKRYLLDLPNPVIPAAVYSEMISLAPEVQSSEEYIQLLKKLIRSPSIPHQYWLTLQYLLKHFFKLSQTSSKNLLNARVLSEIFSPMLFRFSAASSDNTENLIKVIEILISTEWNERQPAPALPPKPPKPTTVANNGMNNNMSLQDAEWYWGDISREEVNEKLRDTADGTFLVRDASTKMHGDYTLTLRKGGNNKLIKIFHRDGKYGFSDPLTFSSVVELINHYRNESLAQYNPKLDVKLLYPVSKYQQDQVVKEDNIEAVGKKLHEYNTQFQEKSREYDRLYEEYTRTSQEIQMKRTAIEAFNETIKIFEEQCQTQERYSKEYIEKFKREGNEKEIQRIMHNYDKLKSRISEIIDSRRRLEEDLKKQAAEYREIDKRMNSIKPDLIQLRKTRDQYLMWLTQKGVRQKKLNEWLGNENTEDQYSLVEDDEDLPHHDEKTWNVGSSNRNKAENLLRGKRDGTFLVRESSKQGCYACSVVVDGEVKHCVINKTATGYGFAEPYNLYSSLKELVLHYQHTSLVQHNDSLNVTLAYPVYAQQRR

Structure (SMILES)	IC50 [nM]
Cn1c(-c2ccoc2)nc2c(N3CCC(n4c(=O)[nH]c5ccccc54)CC3)ncnc21 [Compound 265, 1-[1-(8-furan-3-yl-9-methyl-9H-purin-6-yl)piperidin-4-yl]-1,3-dihydro-2H-benzimidazol-2-one]	50 to 250
Cn1c(C(=O)NCC2(O)CC2)nc2c(N3CCC(n4c(=O)[nH]c5ccccc54)CC3)ncnc21 [Compound 12, N-[(1-hydroxycyclopropyl)methyl]-9-methyl-6-[4-(2-oxo-2,3-dihydro-1H-benzimidazol-1-yl)piperidin-1-yl]-9H-purine-8-carboxamide]	50 to 250
Cn1c(-c2cccnc2)nc2c(N3CCC4(CC3)C(=O)Nc3ccccc34)ncnc21 [Compound 290, 1′-(9-methyl-8-pyridin-3-yl-9H-purin-6-yl)spiro[indole-3,4′-piperidin]-2(1H)-one]	< 50
CCn1c(-c2cnc(OC)nc2OC)nc2c(N3CCC(n4c(=O)[nH]c5ccccc54)CC3)ncnc21 [Compound 321, 1-(1-{8-[2,4-bis(methyloxy)pyrimidin-5-yl]-9-ethyl-9H-purin-6-yl}piperidin-4-yl)-1,3-dihydro-2H-benzimidazol-2-one]	500 to 1500
Cn1cc(-c2nc3c(N4CCN(c5cccc(OCC(=O)NC6CCCCC6)c5)CC4)ncnc3n2C)cn1 [Compound 358, N-cyclohexyl-2-[(3-{4-[9-methyl-8-(1-methyl-1H-pyrazol-4-yl)-9H-purin-6-yl]piperazin-1-yl}phenyl)oxy]acetamide]	500 to 1500
CC1CC(n2c(=O)[nH]c3ccccc32)CCN1c1ncnc2c1nc(C(=O)NCC1CC1)n2C (stereo not shown) [Compound 277, N-(cyclopropylmethyl)-9-methyl-6-[2-methyl-4-(2-oxo-2,3-dihydro-1H-benzimidazol-1-yl)piperidin-1-yl]-9H-purine-8-carboxamide]	50 to 250
Cn1c(C(=O)NCC(C)(C)O)nc2c(N3CCC4(CC3)C(=O)Nc3ccccc34)ncnc21 [Compound 83, N-(2-hydroxy-2-methylpropyl)-9-methyl-6-(2-oxo-1,2-dihydro-1′H-spiro[indole-3,4′-piperidin]-1′-yl)-9H-purine-8-carboxamide]	50 to 250
O=C(NCC1CC1)c1nc2c(N3CCC(n4c(=O)[nH]c5ccccc54)CC3)ncnc2n1C1CC1 [Compound 171, 9-Cyclopropyl-N-(cyclopropylmethyl)-6-[4-(2-oxo-2,3-dihydro-1H-benzimidazol-1-yl)piperidin-1-yl]-9H-purine-8-carboxamide]	50 to 250
CCn1c(C(=O)NCC2CC2)nc2c(N3CCC(n4c(=O)[nH]c5ncccc54)CC3)ncnc21 [Compound 270, N-(cyclopropylmethyl)-9-ethyl-6-[4-(2-oxo-2,3-dihydro-1H-imidazo[4,5-b]pyridin-1-yl)piperidin-1-yl]-9H-purine-8-carboxamide]	< 50
Cn1c(C(=O)NC2CC2)nc2c(N3CCC(n4c(=O)[nH]c5ccccc54)CC3)ncnc21 [Compound 43, N-cyclopropyl-9-methyl-6-[4-(2-oxo-2,3-dihydro-1H-benzimidazol-1-yl)piperidin-1-yl]-9H-purine-8-carboxamide]	50 to 250
CCn1c(C(=O)NCCCCO)nc2c(N3CCC4(CC3)C(=O)Nc3ccccc34)ncnc21 [Compound 222, 9-ethyl-N-(4-hydroxybutyl)-6-(2-oxo-1,2-dihydro-1′H-spiro[indole-3,4′-piperidin]-1′-yl)-9H-purine-8-carboxamide]	50 to 250
Cn1c(C(=O)NCC2CC2)nc2c(N3CCC4(CC3)C(=O)Oc3ccccc34)ncnc21 [Compound 129, N-(cyclopropylmethyl)-9-methyl-6-(2-oxo-1′H-spiro[1-benzofuran-3,4′-piperidin]-1′-yl)-9H-purine-8-carboxamide]	250 to 500
Cn1c(C(F)(F)F)nc2c(N3CCC(n4c(=O)[nH]c5ccccc54)CC3)ncnc21 [Compound 134, 1-{1-[9-Methyl-8-(trifluoromethyl)-9H-purin-6-yl]piperidin-4-yl}-1,3-dihydro-2H-benzimidazol-2-one]	250 to 500
